Experimental findings from patent US9586951B2 (FUJIFILM Corporation, priority 2013, dated 2017) are described below.

Some results are limits rather than exact numbers.

In this experiment the target is T1, ATM (Homo sapiens, UniProt Q13315).
T1 construct: detecting phosphorylation of Chk2 in a human non-small cell lung cancer cell line NCI-H460 (ATCC company); host or cells: NCI-H460 human non-small cell lung cancer cells
T1 sequence (Q13315 whole entry): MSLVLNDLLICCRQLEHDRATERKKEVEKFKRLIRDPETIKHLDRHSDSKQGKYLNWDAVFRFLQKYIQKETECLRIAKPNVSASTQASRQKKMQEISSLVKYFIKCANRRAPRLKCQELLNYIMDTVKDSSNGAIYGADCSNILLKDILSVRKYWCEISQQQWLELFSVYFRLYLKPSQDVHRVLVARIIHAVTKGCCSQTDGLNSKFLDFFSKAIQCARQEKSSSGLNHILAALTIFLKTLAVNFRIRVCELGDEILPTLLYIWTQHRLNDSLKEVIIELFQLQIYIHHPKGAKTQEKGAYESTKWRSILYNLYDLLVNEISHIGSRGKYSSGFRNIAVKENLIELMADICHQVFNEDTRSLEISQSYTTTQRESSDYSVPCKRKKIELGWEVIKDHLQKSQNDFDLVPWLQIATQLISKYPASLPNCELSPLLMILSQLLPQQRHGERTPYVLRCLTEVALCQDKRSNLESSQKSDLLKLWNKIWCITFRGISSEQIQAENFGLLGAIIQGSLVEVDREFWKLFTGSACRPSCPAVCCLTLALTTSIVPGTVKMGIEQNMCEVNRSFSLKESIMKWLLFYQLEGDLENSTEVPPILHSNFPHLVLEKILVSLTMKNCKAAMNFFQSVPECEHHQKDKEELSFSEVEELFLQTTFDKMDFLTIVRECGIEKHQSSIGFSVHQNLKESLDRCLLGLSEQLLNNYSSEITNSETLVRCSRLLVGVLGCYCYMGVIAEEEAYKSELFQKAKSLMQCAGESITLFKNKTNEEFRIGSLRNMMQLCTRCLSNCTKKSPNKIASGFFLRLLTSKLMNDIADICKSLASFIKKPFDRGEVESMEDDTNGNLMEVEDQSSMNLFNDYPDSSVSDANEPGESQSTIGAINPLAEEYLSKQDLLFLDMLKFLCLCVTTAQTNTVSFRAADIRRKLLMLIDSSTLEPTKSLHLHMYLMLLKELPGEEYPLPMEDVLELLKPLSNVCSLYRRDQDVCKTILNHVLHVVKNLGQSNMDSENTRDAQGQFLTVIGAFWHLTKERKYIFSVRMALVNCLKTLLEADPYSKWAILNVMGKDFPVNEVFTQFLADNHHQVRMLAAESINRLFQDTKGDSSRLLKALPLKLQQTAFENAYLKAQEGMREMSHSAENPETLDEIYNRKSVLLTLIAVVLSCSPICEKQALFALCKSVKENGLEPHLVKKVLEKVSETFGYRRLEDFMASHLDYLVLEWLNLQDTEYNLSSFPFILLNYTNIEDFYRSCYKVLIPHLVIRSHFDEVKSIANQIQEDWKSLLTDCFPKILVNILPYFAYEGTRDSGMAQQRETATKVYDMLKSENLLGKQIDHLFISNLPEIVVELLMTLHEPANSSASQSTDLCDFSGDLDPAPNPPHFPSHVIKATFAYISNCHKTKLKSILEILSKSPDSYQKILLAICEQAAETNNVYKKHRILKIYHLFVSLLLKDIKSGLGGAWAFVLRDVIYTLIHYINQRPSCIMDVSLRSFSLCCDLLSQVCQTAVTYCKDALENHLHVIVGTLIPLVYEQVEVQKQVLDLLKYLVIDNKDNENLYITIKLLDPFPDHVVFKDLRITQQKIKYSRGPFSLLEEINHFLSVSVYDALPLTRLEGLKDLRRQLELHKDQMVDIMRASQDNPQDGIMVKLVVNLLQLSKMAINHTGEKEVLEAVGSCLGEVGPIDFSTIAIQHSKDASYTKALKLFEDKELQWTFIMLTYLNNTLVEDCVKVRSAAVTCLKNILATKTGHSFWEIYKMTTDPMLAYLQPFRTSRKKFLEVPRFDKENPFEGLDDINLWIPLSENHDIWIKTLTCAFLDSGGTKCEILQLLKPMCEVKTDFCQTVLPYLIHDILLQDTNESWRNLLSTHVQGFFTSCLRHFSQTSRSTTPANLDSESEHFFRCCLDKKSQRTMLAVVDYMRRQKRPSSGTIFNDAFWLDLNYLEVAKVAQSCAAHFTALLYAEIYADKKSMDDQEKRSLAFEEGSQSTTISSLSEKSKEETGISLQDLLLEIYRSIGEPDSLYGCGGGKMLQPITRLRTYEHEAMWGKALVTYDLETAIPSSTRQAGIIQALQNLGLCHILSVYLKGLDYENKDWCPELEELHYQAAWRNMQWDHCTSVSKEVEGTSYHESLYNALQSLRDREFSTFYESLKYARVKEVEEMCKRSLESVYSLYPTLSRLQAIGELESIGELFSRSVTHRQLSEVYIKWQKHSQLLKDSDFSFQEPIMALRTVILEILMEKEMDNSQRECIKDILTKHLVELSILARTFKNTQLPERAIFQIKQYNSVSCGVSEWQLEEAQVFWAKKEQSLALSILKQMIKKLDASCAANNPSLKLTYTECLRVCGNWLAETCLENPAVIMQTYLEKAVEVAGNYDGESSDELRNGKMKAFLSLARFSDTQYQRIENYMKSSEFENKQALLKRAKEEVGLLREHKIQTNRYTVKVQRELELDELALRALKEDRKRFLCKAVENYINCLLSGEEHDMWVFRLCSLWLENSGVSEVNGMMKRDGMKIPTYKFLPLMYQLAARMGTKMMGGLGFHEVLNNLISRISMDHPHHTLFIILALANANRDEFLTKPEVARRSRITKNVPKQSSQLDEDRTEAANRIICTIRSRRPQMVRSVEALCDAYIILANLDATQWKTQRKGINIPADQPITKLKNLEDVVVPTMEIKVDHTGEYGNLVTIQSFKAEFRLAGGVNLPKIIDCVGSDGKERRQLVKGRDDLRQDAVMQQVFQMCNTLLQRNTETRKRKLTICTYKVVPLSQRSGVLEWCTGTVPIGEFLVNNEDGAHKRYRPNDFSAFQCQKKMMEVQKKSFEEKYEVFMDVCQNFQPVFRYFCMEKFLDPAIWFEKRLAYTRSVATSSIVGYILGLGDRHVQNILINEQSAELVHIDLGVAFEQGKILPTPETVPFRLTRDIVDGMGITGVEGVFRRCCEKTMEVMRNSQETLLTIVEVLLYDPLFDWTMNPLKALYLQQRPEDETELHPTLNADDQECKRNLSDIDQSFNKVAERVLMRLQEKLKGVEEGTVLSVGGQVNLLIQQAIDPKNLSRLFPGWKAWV
Description: ATM inhibition test (phosphorylation of Chk2 generated by ionizing radiation, AlphaScreen SureFire). It counts as cell-based. Conditions: phosphorylated Chk2 in NCI-H460 cells, ionizing radiation 8Gy, 1 hour after test compound treatment; read-out: ATM inhibitory activity. The method, boiled down: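 Phosphorylated Chk2 read by AlphaScreen SureFire in human non-small cell lung cancer NCI-H460 cells, 1 hour after 8Gy ionizing radiation at 37° C. Compound added 1 hour before irradiation. Percent inhibition normalised between irradiated and non-irradiated drug-untreated signals.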
(In general: Alpha assays give light when donor and acceptor beads are brought close together.)
For `O=c1cc(N2CCOCC2)cc(-c2cccc3c2Sc2ccc(N[C@@H]4COC[C@@H]4N4CCOCC4)cc2S3)[nH]1` (relative stereo) [Example 1-61, cis-4-morpholino-6-(7-((4-morpholinotetrahydrofuran-3-yl)amino)thianthren-1-yl)pyridin-2(1 H)-one], the IC50 was < 100 nM.

As for `Cc1cccc(CCN2CCC(Nc3ccc4c(c3)Cc3cccc(-c5cc(N6CCOCC6)cc(=O)[nH]5)c3O4)CC2)c1` [Example 2-30-8, 6-(7-((1-(3-Methylphenethyl)piperidin-4-yl)amino)-9H-xanthen-4-yl)-4-morpholino pyridin-2 (1H)-one], the IC50 was 500 to 2000 nM.

Take `O=c1cc(N2CCOCC2)cc(-c2cccc3c2Sc2ccc(NCCCCN4CCOCC4)cc2S3)[nH]1` [Example 1-9-4, 4-Morpholino-6-(7-((4-morpholinobutyl)amino)thianthren-1-yl)pyridin-2(1H)-one]: the IC50 is 100 to 500 nM.

Take `CC(Nc1ccc2c(c1)Cc1cccc(-c3cc(N4CCOCC4)cc(=O)[nH]3)c1O2)c1nccs1` (stereo not shown) [Example 2-14-43, 4-Morpholino-6-(7-((1-(thiazol-2-yl)ethyl)amino)-9H-xanthen-4-yl)pyridin-2 (1H)-one]: the IC50 was in the range of 100 to 500 nM.

Turning to `COc1cc(C(C)Nc2ccc3c(c2)Cc2cccc(-c4cc(N5CCOCC5)cc(=O)[nH]4)c2O3)ccn1` (stereo not shown) [Example 2-14-26, 6-(7-((1-(2-Methoxypyridin-4-yl)ethyl)amino)-9H-xanthen-4-yl)-4-morpholino pyridin-2(1H)-one], the IC50 is < 100 nM.

Regarding `O=c1cc(N2CCOCC2)cc(-c2cccc3c2Oc2ccc(NC4CCN(Cc5cncc(F)c5)CC4)cc2C3)[nH]1` [Example 2-28-18, 6-(7-((1-((5-Fluoropyridin-3-yl)methyl)piperidin-4-yl)amino)-9H-xanthen-4-yl)-4-morpholino pyridin-2(1H)-one], the IC50 is 100 to 500 nM.

For the compound `Cc1csc(CNc2ccc3c(c2)Cc2cccc(-c4cc(N5CCOCC5)cc(=O)[nH]4)c2O3)c1` [Example 2-14-41, 6-(7-(((4-Methylthiophen-2-yl)methyl)amino)-9H-xanthen-4-yl)-4-morpholino pyridin-2(1H)-one], the IC50 lay in the range of 100 to 500 nM.

With `Cc1ccc(C(Nc2ccc3c(c2)Cc2cccc(-c4cc(N5CCOCC5)cc(=O)[nH]4)c2O3)[C@H]2CN(C)CCO2)nc1` (stereo partly drawn) [Example 2-67, 6-(7-((((R)-4-methylmorpholin-2-yl)(5-methylpyridin-2-yl)methyl)amino)-9H-xanthen-4-yl)-4-morpholinopyridin-2(1H)-one], the IC50 is < 100 nM.

In the case of `Cc1ccc(C(CCN(C)C)Nc2ccc3c(c2)Sc2cccc(-c4cc(N5CCOCC5)cc(=O)[nH]4)c2S3)nc1` (single isomer, unassigned) [Example 1-51-5, 6-(7-((3-(Dimethylamino)-1-(5-methylpyridin-2-yl)propyl)amino)thianthren-1-yl)-4-morpholino pyridin-2 (1H)-one], the IC50 was < 100 nM.

Consider `Cc1cncc(C(CO)Nc2ccc3c(c2)Sc2cccc(-c4cc(N5CCOCC5)cc(=O)[nH]4)c2S3)c1` (stereo not shown) [Example 1-12-66, 6-(7-((2-Hydroxy-1-(5-methylpyridin-3-yl)ethyl)amino)thianthren-1-yl)-4-morpholino pyridin-2(1H)-one], for which the IC50 lay in the range of 100 to 500 nM.

For `CC(Nc1ccc2c(c1)Cc1cccc(-c3cc(N4CCOCC4)cc(=O)[nH]3)c1O2)c1cnccn1` (stereo not shown) [Example 2-14-77, 4-Morpholino-6-(7-((1-(pyrazin-2-yl)ethyl)amino)-9H-xanthen-4-yl)pyridin-2 (1H)-one], the IC50 lay in the range of 100 to 500 nM.

Consider `COc1ncccc1CNc1ccc2c(c1)Cc1cccc(-c3cc(N4CCOCC4)cc(=O)[nH]3)c1S2` [Example 3-8-8, 6-(7-(((2-Methoxypyridin-3-yl)methyl)amino)-9H-thioxanthen-4-yl)-4-morpholino pyridin-2 (1H)-one], for which the IC50 lay within 500 to 2000 nM.

Regarding `CC(Nc1ccc2c(c1)Sc1cccc(-c3cc(N4CCOCC4)cc(=O)[nH]3)c1S2)c1ccnc(C#N)n1` (stereo not shown) [Example 1-12-82, 4-(1-((6-(4-Morpholino-6-oxo-1,6-dihydropyridin-2-yl)thianthren-2-yl)amino)ethyl) pyrimidine-2-carbonitrile], the IC50 is 100 to 500 nM.

On to `O=c1cc(N2CCOCC2)cc(-c2cccc3c2Oc2ccc(NCc4cncc(-n5ccnc5)c4)cc2C3)[nH]1` [Example 2-2-56, 6-(7-(((5-(1H-Imidazol-1-yl)pyridin-3-yl)methyl)amino)-9H-xanthen-4-yl)-4-morpholino pyridin-2 (1H)-one], for which the IC50 lay within 100 to 500 nM.

On to `CCC(CC)(Nc1ccc2c(c1)Sc1cccc(-c3cc(N4CCOCC4)cc(=O)[nH]3)c1S2)c1ccc(C)cn1` [Example 1-50-6, 6-(7-((3-(5-Methylpyridin-2-yl)pentan-3-yl)amino)thianthren-1-yl)-4-morpholino pyridin-2(1H)-one], for which the IC50 lay in the range of 500 to 2000 nM.

As to `O=c1cc(N2CCOCC2)cc(-c2cccc3c2Sc2ccc(NC4CCCC4N4CCOCC4)cc2S3)[nH]1` (single isomer, unassigned) [Example 1-16-1-3, 4-morpholino-6-(7-((2-morpholinocyclopentyl)amino)thianthren-1-yl)pyridin-2(1H)-one], the IC50 was 100 to 500 nM.

As to `CN(C)CCNc1ccc2c(c1)Sc1cccc(-c3cc(N4CCOCC4)cc(=O)[nH]3)c1S2` [Example 1-10-4, 6-(7-((2-(Dimethylamino)ethyl)amino)thianthren-1-yl)-4-morpholinopyridin-2(1H)-one], the IC50 is 100 to 500 nM.

`O=c1cc(N2CCOCC2)cc(-c2cccc3c2Oc2ccc(NC4CCOC4)cc2C3)[nH]1` (stereo not shown) [Example 2-16, 4-Morpholino-6-(7-((tetrahydrofuran-3-yl)amino)-9H-xanthen-4-yl)pyridin-2(1H)-one]: the IC50 lay in the range of 500 to 2000 nM.

On to `O=c1cc(N2CCOCC2)cc(-c2cccc3c2Oc2ccc(NCc4cnc5ccccc5c4)cc2C3)[nH]1` [Example 2-2-46, 4-Morpholino-6-(7-((quinolin-3-ylmethyl)amino)-9H-xanthen-4-yl) pyridin-2(1H)-one], for which the IC50 is < 100 nM.

As for `N#Cc1cccc(CNc2ccc3c(c2)Cc2cccc(-c4cc(N5CCOCC5)cc(=O)[nH]4)c2O3)c1` [Example 2-3-15, 3-(((5-(4-Morpholino-6-oxo-1,6-dihydropyridin-2-yl)-9H-xanthen-2-yl)amino)methyl) benzonitrile], the IC50 lay in the range of 100 to 500 nM.

For the compound `Cc1ccc(C(Nc2ccc3c(c2)Sc2cccc(-c4cc(N5CCOCC5)cc(=O)[nH]4)c2S3)C2CCN(CC(F)F)CC2)nc1` (stereo not shown) [Example 1-58, 6-(7-(((1-(2,2-difluoroethyl)piperidin-4-yl)(5-methylpyridin-2-yl)methyl)amino)thianthren-1-yl)-4-morpholinopyridin-2(1H)-one], the IC50 was < 100 nM.

Turning to `O=c1cc(N2CCOCC2)cc(-c2cccc3c2Sc2ccc(NCc4ccnc(N5CCOCC5)n4)cc2S3)[nH]1` [Example 1-12-41, 4-Morpholino-6-(7-(((2-morpholinopyrimidin-4-yl)methyl)amino)thianthren-1-yl)pyridin-2(1H)-one], the IC50 lay in the range of 100 to 500 nM.

Regarding `O=c1cc(N2CCOCC2)cc(-c2cccc3c2Oc2ccc(NC4CCN(Cc5ccccn5)CC4)cc2C3)[nH]1` [Example 2-28-1, 4-Morpholino-6-(7-((1-(pyridin-2-ylmethyl)piperidin-4-yl)amino)-9H-xanthen-4-yl)pyridin-2 (1H)-one], the IC50 fell in the range of 500 to 2000 nM.

For the compound `CCN1CCC(C(Nc2ccc3c(c2)Sc2cccc(-c4cc(N5CCOCC5)cc(=O)[nH]4)c2S3)c2ccc(C)cn2)CC1` (stereo not shown) [Example 1-56-1, 6-(7-(((1-ethylpiperidin-4-yl)(5-methylpyridin-2-yl)methyl)amino)thianthren-1-yl)-4-morpholinopyridin-2(1H)-one], the IC50 was < 100 nM.

Turning to `COC1CN(CCC(Nc2ccc3c(c2)Sc2cccc(-c4cc(N5CCOCC5)cc(=O)[nH]4)c2S3)c2ccc(C)cn2)C1` (single isomer, unassigned) [Example 1-51-8, 6-(7-((3-(3-Methoxyazetidin-1-yl)-1-(5-methylpyridin-2-yl)propyl)amino)thianthren-1-yl)-4-morpholino pyridin-2 (1H)-one], the IC50 is < 100 nM.

With `Cc1ccc(CN2CCC(Nc3ccc4c(c3)Cc3cccc(-c5cc(N6CCOCC6)cc(=O)[nH]5)c3O4)CC2)cn1` [Example 2-28-10, 6-(7-((1-((6-Methylpyridin-3-yl)methyl)piperidin-4-yl)amino)-9H-xanthen-4-yl)-4-morpholino pyridin-2(1H)-one], the IC50 fell in the range of 100 to 500 nM.

For `CC(Nc1ccc2c(c1)Sc1cccc(-c3cc(N4CCOCC4)cc(=O)[nH]3)c1S2)C(=O)N1CCCC1` (stereo not shown) [Example 1-18-4], the IC50 was in the range of 100 to 500 nM.

As to `O=c1cc(N2CCOCC2)cc(-c2cccc3c2Oc2ccc(NCc4cnccc4Cl)cc2C3)[nH]1` [Example 2-14-4, 6-(7-(((4-Chloropyridin-3-yl)methyl)amino)-9H-xanthen-4-yl)-4-morpholino pyridin-2(1H)-one], the IC50 was in the range of 100 to 500 nM.

For `Cc1cncc(C(C)Nc2ccc3c(c2)Cc2cccc(-c4cc(N5CCOCC5)cc(=O)[nH]4)c2O3)n1` (stereo not shown) [Example 2-14-49, 6-(7-((1-(6-Methylpyrazin-2-yl)ethyl)amino)-9H-xanthen-4-yl)-4-morpholino pyridin-2(1H)-one], the IC50 is 100 to 500 nM.

For the compound `COCCNCC(Nc1ccc2c(c1)Sc1cccc(-c3cc(N4CCOCC4)cc(=O)[nH]3)c1S2)c1cccc(C)n1` (stereo not shown) [Example 1-34-2, 6-(7-((2-((2-Methoxyethyl)amino)-1-(6-methylpyridin-2-yl)ethyl)amino)thianthren-1-yl)-4-morpholino pyridin-2 (1H)-one], the IC50 was in the range of 100 to 500 nM.

Take `Cc1ccnc(C(C)Nc2ccc3c(c2)Cc2cccc(-c4cc(N5CCOCC5)cc(=O)[nH]4)c2O3)c1` (single isomer, unassigned) [Example 2-14-93-2, 6-(7-((1-(4-methylpyridin-2-yl)ethyl)amino)-9H-xanthen-4-yl)-4-morpholinopyridin-2(1H)-one]: the IC50 was < 100 nM.
